The results in this text go back to patent publication US12168033B2, “Synergistic composition for osteoarthritis” (LAILA NUTRACEUTICALS, priority 2014, dated 2024).

In the assay the test system is Adjuvant Induced Arthritis. The assay is described as follows: Adjuvant Induced Arthritis in Sprague Dawley rats, Complete Freund's Adjuvant, 20 days (Example 20). Format: in vivo. From the text: Sprague Dawley Rats were housed in solid bottom autoclaved polypropylene cages at three rats per cage with stainless steel top grill. Animals were provided with rodent pellet feed and mineral water ad libitum. The animals were acclimatized for a period of 3 days prior to enrollment into the experiment and they are habituated/adapted to the experimenter and to the experimental conditions for measurement of hind limb weight bearing capacity in the Incapacitance meter. A group of 35 animals were examined and 30 healthy SD rats were selected for the study and were randomly assigned to one of five different groups based on the paw volume, i.e., normal control (G1), vehicle control (G2), two groups (G3 & G4) supplemented with test substances composition-11 (200 mg 400 mg) and with reference drug prednisolone 10 mg/kg (G5). After 7 days administration of test item, reference item or vehicle, on day 8 arthritis was induced in rats of all groups except G1 by a single subcutaneous injection of 50 μL Complete Freund's Adjuvant (Sigma-Aldrich, USA), into the sub plantar region of left hind limb. Control group animals were injected with 0.1 mL normal saline (0.9% w/v sodium chloride). The vehicle, test items and reference drug were administered till completion of the study, i.e., 20 days. Paw volume was measured by a Plethysmometer (Pan Lab, LE7500) on day 0 (prior to treatment) and day 20. The difference between the final and initial paw volume was considered as edema volume. The in vivo anti-inflammatory responses of test compounds were estimated by calculating the percentage inhibition of paw edema when compared to the paw edema observed in the CMC supplemented control group. […] Percentage weight bearing capacity was measured in all the groups before induction and on 20th day of treatment using Incapacitance Meter (IITC Life Science Inc., CA).

As to `C[C@]12C=CC(=O)C=C1CC[C@@H]1[C@@H]2[C@@H](O)C[C@@]2(C)[C@H]1CC[C@]2(O)C(=O)CO` [Prednisolone, prednisolone], the “Percent Weight Bearing on Left Hind Limb, Day-20” value (10 mmp (prednisolone), Day-20, mean ± S.E.M, six rats) came to 49.88 ± 1.13%. For the setting “10 mmp (prednisolone), before induction”, the “Percent Weight Bearing on Left Hind Limb, Before Induction” value worked out at 49.57 ± 0.55%. In addition, the “% inhibition of paw edema” value (prednisolone 10 mg/kg, day 20) is listed as 69.7%.
